Experimental data: ChEMBL document CHEMBL1156348, “Coumarins with monoamine oxidase inhibitory activity and antioxidative coumarino-lignans from Hibiscus syriacus” (J Nat Prod, 2001)
Values after ≈ are worked out from the molar mass of the structure shown. Active and inactive are the calls of the source. The calls are words filed in the database; no cut-off is given here.

Experiments:
[1] = test system: Liver microsomes; assay: Antioxidant activity in rat liver microsomes assessed as inhibition of lipid peroxidation by TBA method; type: functional, Microsome
[2] = species: Mus musculus; assay: Inhibition of mouse brain monoamine oxidase up to 70 ug/mL by Krajl method
[3] = Inhibition of mouse brain monoamine oxidase by Krajl method

Compound | IC50 [1] | Activity [2] | IC50 [3]
COc1cc([C@H]2Oc3c(OC)cc4ccc(=O)oc4c3O[C@@H]2C)cc(OC)c1O | 1.4 µg/mL (≈ 3.5 µM) | inactive | 
COc1c(OC)c(O)c2oc(=O)ccc2c1OC |  |  | 44.5 µg/mL (≈ 176 µM)
COc1cc([C@H]2Oc3c(OC)cc4ccc(=O)oc4c3O[C@@H]2CO)ccc1O [CLEOMISCOSIN A] | 9 µg/mL (≈ 23.3 µM) |  | 

Other lines, results leading:

IC50 [1] | Activity [2] | IC50 [3] | Compound
0.7 µg/mL (≈ 1.68 µM) |  |  | COc1cc([C@H]2Oc3c(OC)cc4ccc(=O)oc4c3O[C@@H]2CO)cc(OC)c1O [CLEOMISCOSIN C]
5.5 µg/mL (≈ 13.2 µM) |  |  | COc1cc([C@@H]2Oc3c(c(OC)cc4ccc(=O)oc34)O[C@H]2CO)cc(OC)c1O [CLEOMISCOSIN D]
 |  | 19.4 µg/mL (≈ 101 µM) | COc1cc2ccc(=O)oc2cc1O [SCOPOLETIN]
0.8 µg/mL |  |  | VITAMIN E
